Test results from patent US10149830B2, “Pharmaceutical agents and methods relating thereto” (Cushing Academy, priority 2016, dated 2018).

Legend:
[1] = test system: HL-60 (promyelocytic leukemia); test: MTT reduction cytotoxicity assay, HL-60; format: cell-based; details: Homo sapiens, HL-60, MTT, 72 h incubation
Experimental: (§1) The human tumor cell lines used were HL-60 (promyelocytic leukemia), MCF-7 (breast adenocarcinoma) and NCI-H292 (lung carcinoma). The cells were obtained from Rio de Janeiro Cell Bank (RJ, Brazil). Cancer cells were maintained in RPMI 1640 medium or DMEN supplemented with 10% fetal bovine serum, 2 mM glutamine, 100 U/mL penicillin, 100 μg/mL streptomycin at 37° C. with 5% CO2. Cytotoxicity of (6R)-6-[(2Z)-pent-2-enyl]-5,6-dihydro-2H-pyran-2-one [(R)-(−)-Tuberolactone] against the three tumor cell lines was assessed using the 3-(4,5-dimethyl-2-thiazolyl)-2,5-diphenyl-2H tetrazolium bromide (MTT) (Sigma Aldrich Co., St. Louis, Mo., USA) reduction assay. Tumor cells were plated in 96-well plates (10^5 cells/mL for adherent cells or 3×10^5 cells/mL for Leukemia). (6R)-6-[(2Z)-pent-2-enyl]-5,6-dihydro-2H-pyran-2-one [(R)-(−)-Tuberolactone] in DMSO (0.3-25 μg/mL) were added to each well and incubated for 72 h. Control groups received the same amount of DMSO. After 69 h of treatment, 25 μL of MTT (5 mg/mL) was added. Three hours later, the MTT formazan product was dissolved in 100 μL of DMSO. Absorbance was measured at 595 nm in plate spectrophotometer (Varioskan Flash, Thermo Scientific). […] IC50 values and their 95% confidence intervals for two different experiments were obtained by non linear regression using Graphpad Prism version 5.0 for Windows (GraphPad Software, San Diego, Calif., USA).

[2] = test system: NCI-H292 (lung carcinoma); test: MTT reduction cytotoxicity assay, NCI-H292; format: cell-based; details: Homo sapiens, 72 h incubation
Experimental: as §1

[3] = test system: MCF-7 (breast adenocarcinoma); test: MTT reduction cytotoxicity assay, MCF-7; format: cell-based; details: Homo sapiens, MCF7, MCF-7, MTT, 72 h incubation
Experimental: as §1

B. cereus = test: Paper disk diffusion antibacterial test, B. cereus; format: cell-based, Bacillus cereus; details: gram-(+) strain, 24 h at 28° C.
Experimental: (§2) 235 mg alkaloids were extracted from 750 g leaves from the plant, Gaultheria procumbens (also called American wintergreen, teaberry, or boxberry). Fractionation of the crude extract was guided by antimicrobial activity against several gram-(+) and gram-(−) strains: Enterobacter aerogenes (Gram-negative rods), Bacillus cereus (Gram-positive rods), and Sarcina lutea (Gram-positive […]), using the paper disk diffusion method (Barry, A. L.; Thornsbery, C. Identification for Clinical Microbiology, 4th ed.; Washington, D.C., 1985; p 978) supplied within the Science Kit & Boreal Laboratories Antibiotic Effects Kit. The SK Antibiotics Effect Kit uses “Easygel” instead of agar dishes. Each paper disk (6 mm) containing approximately 100 μg of the extract was placed directly onto an Easygel plate, which had been freshly inoculated with either a gram-(+) or (−) strain. In addition, a standard antibiotic disk (30 μg of either penicillin, tetracycline, or chloramphenicol supplied within Science Kit & Boreal Laboratories Antibiotic Effects Kit) as well as a blank disk (with only solvent) were placed on the freshly inoculated Easygel plate. […] 45 mg (6R)-6-[(2Z)-pent-2-enyl]-5,6-dihydro-2H-pyran-2-one [(R)-(−)-Tuberolactone] were isolated (MW. 166.0989 g/mol). […]

E. aerogenes = test: Paper disk diffusion antibacterial test, E. aerogenes; format: cell-based, Enterobacter aerogenes; details: gram-(−) strain, 24 h at 28° C.
Experimental: as §2

S. lutea = test: Paper disk diffusion antibacterial test, S. lutea; format: cell-based, Sarcina lutea; details: gram-(+) strain, 24 h at 28° C.
Experimental: as §2

Row | SMILES | IC50 ([1]; two experiments) [µg/mL] | IC50 ([2]; two experiments) [µg/mL] | IC50 ([2]; value in parentheses) [µM] | IC50 ([3]; two experiments) [µg/mL] | IC50 ([3]; value in parentheses) [µM] | IC50 ([1]; value in parentheses) [µM] | antibacterial activity against B. cereus (B. cereus) | antibacterial activity against E. aerogenes (E. aerogenes) | antibacterial activity against S. lutea (S. lutea)
1 | COc1cccc2c1C(=O)c1c(O)c3c(c(O)c1C2=O)C[C@@](O)(C(=O)CO)C[C@@H]3O[C@H]1C[C@H](N)[C@H](O)[C@H](C)O1 [Doxorubicin, reference compound] | 0.02 | 0.2 | 0.36 | – | – | – | – | – | –
2 | CC/C=C\C[C@@H]1CC=CC(=O)O1 [Tuberolactone, (6R)-6-[(2Z)-pent-2-enyl]-5,6-dihydro-2H-pyran-2-one] | 4.4 | 5.9 | 35.5 | 6.4 | 38.5 | 26 | confirmed | confirmed | confirmed
